Reference: patent US20210386367A1, “DEVICES AND SYSTEMS FOR GASTROINTESTINAL MICROBIOME DETECTION AND MANIPULATION” (Progenity, Inc., priority 2018, published 2021)
≈ marks a conversion by molar mass, not a printed value. Where “and” joins values, the source holds several entries; their conditions need not be identical. Equal values may be shown once. Entries after “also recorded” stand apart in the source; their conditions may differ. Read-outs that look alike come from different tables or passages of the source.

What was measured:
[1] = system: Bacteroides non fragilis; assay: Agar dilution MIC, 29 clinical isolates; type: cell-based, Bacteroides spp.; conditions: for Mode: modal MIC
[2] = system: S. pneumoniae ATCC 49619; assay: Broth microdilution MIC (time-kill study); type: cell-based, Streptococcus pneumoniae
[3] = system: S. pneumoniae ATCC 49619; assay: Time-kill assay; type: cell-based, Streptococcus pneumoniae; conditions: 2×, 4×, 8× MIC; 2, 6, 24 hr
[4] = system: S. pyogenes ATCC 49399; assay: Broth microdilution MIC (time-kill study); type: cell-based, Streptococcus pyogenes
[5] = system: E. coli MMX 1312; assay: Time-kill assay; type: cell-based, Escherichia coli; conditions: for time-kill kinetics outcome (bactericidal = ≥3 log reduction in CFU per mL): 2×, 4×, 8× MIC, 2, 6, 24 hr
[6] = system: Streptococcus spp. (S. pneumoniae ATCC 49619, S. pyogenes ATCC 49399, S. agalactiae ATCC 13813); assay: Agar dilution MIC (spontaneous mutation study; strain in conditions); type: cell-based
[7] = system: Bacteroides fragilis clinical isolates; assay: MIC distribution against clinical isolates; type: cell-based
Outline: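 MIC is the lowest agent concentration preventing growth, determined by broth or agar dilution with serial compound dilutions and incubation under appropriate conditions (e.g., overnight at 37° C.). MIC90 is the concentration inhibiting ≥90% of isolates in the test population.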

[8] = system: S. agalactiae ATCC 13813; assay: Time-kill assay; type: cell-based, Streptococcus agalactiae; conditions: 2×, 4×, 8× MIC; 2, 6, 24 hr
[9] = system: E. coli (ATCC 25922, ATCC 35218, MMX 1312); assay: Spontaneous mutation frequency assay; type: cell-based, Escherichia coli; conditions: for mutation rate / colonies on selection plates: E. coli MMX 1312; for Spontaneous Mutation Frequency: selection at 4× and 8× MIC, meropenem/ceftriaxone: isolates other than MMX 1312
Protocol: Initial values of the MIC were determined by agar dilution in accordance with guidelines from the Clinical and Laboratory Standards Institute (CLSI; (1) “Methods for Dilution Antimicrobial Susceptibility Tests for Bacteria That Grow Aerobically; Approved Standard; 11th ed.,” CLSI standard M07, 2018; (2) “Methods for Antimicrobial Susceptibility Testing of Anaerobic Bacteria; Approved Standard—Eighth Edition,” CLSI document M11-A8, 2012.).
The agar plates were prepared by mixing a ratio of 1.0 mL of concentrated drug to 49.0 mL of the appropriate molten (47° C.) agar; the drug-supplemented agar was mixed, poured into 15-by-150 mm petri dishes and allowed to solidify and dry at room temperature prior to inoculation. […] Each plate was allowed to cool at room temperature for at least 1 hr.
The isolates were streaked onto the appropriate agar medium and incubated for 20 hr (aerobes) or 48 hr (Bacteroides under anaerobic conditions). Using a sterile swab, several well-isolated colonies were removed and resuspended in sterile saline at a heavy cell density. Each plate was inoculated with 0.5 mL of the cell suspension (each test concentration was inoculated in duplicate). The target inoculum for each spontaneous mutation plate was 10^9-10 CFU. In addition, a portion of the inoculum from each isolate was enumerated by making dilutions, spreading on agar and counting colonies.
Once the inoculum was absorbed into the agar, the plates were incubated at 35° C. Aerobes were examined at 24 and 48 hr, and resulting colonies were counted. Bacteroides were incubated anaerobically for 48-72 hr in the anaerobe chamber and colonies were counted.
Colony counts from plates used to enumerate the initial inoculum density and from the resulting spontaneous mutation frequency test plates were determined. The inoculum size was calculated as CFU inoculated per plate. The spontaneous mutation frequency was calculated using the counts from duplicate spontaneous mutation assay test plates as follows:
If there were no colonies on the antibiotic selection plates, the spontaneous mutation frequency was reported as less than the frequency observed with one colony to indicate that the spontaneous mutation frequency was less than the limit of detection (one CFU). […] The mutation prevention concentration (MPC) was reported as the lowest concentration for which no mutants were selected.

[10] = system: Veillonella spp.; assay: Agar dilution MIC, 30 clinical isolates; type: cell-based; conditions: for Mode: modal MIC
[11] = system: Streptococcus spp. spontaneous mutants; conditions: S. pneumoniae ATCC 49619; CLSI QC range shown in parentheses; cited from earlier work
[12] = system: S. agalactiae; assay: Spontaneous mutation frequency and mutation prevention concentration (MPC); type: cell-based; conditions: S. agalactiae ATCC 13813
Excerpt: (§1) As used herein, “spontaneous mutation frequency” refers to the rate at which mutations arise in a bacterium that can lead to resistance to develop to an antimicrobial agent. “Mutation prevention concentration” or “MPC” refers to the lowest concentration of antimicrobial agent above which the selective proliferation of resistant mutants is expected to occur only rarely.

[13] = system: S. pyogenes; assay: as above; type: cell-based; conditions: S. pyogenes ATCC 49399
Excerpt: as §1

[14] = 29 Bacteroides non-fragilis clinical isolates
[15] = Streptococcus pneumoniae, ATCC49619, broth microdilution, read-out: MIC
[16] = Streptococcus pyogenes, ATCC49399, broth microdilution, read-out: MIC
[17] = Streptococcus agalactiae, S. agalactiae ATCC 13813, read-out: Agar MIC
[18] = Streptococcus pneumoniae, S. pneumoniae ATCC 49619, read-out: Agar MIC
[19] = Streptococcus pyogenes, S. pyogenes ATCC 49399, read-out: Agar MIC
[20] = over evaluated Streptococcus spp. (range stated jointly with other groups), read-out: MIC values (agar dilution)
[21] = MIC 8 μg/mL, 30 B. fragilis isolates
[22] = MIC 16 μg/mL, 30 B. fragilis isolates
[23] = MIC 32 μg/mL, 30 B. fragilis isolates
[24] = MIC 64 μg/mL, 30 B. fragilis isolates
[25] = 30 Veillonella spp. clinical isolates
[26] = ceftriaxone selection 8X MIC, 0.5 μg/mL
[27] = mutant prevention concentration
[28] = MIC 1 μg/mL, 30 B. fragilis isolates
[29] = MIC >8 μg/mL, 30 B. fragilis isolates

Compound: CO/N=C(\C(=O)N[C@@H]1C(=O)N2C(C(=O)O)=C(CSc3nc(=O)c(=O)[nH]n3C)CS[C@H]12)c1csc(N)n1 [ceftriaxone]
- isolates resistant [1]: 72%
- isolates with intermediate resistance [1]: 3%
- % I [1, 14]: 3%
- % R [1, 14]: 72%
- % S [1, 14]: 24%
- MIC50 [1, 14]: >128 µg/mL
- MIC90 [1, 14]: >128 µg/mL
- MIC range [1, 14]: 1 to 128 µg/mL
- MIC50 ([1]; Bacteroides, read-out: MIC50): > 128 µg/mL
- MIC90 ([1]; Bacteroides, read-out: MIC90): > 128 µg/mL
- Mode [1, 14]: >128 µg/mL
- MIC ([2]; S. pneumoniae ATCC 49619): 0.06 µg/mL (≈ 0.108 µM)
- MIC [2, 15]: 0.06 µg/mL (≈ 0.108 µM)
- time-kill kinetics outcome (bactericidal = ≥3 log reduction in CFU per mL) [3]: all three drug concentrations tested demonstrated bactericidal effects at 24 hr
- MIC ([4]; S. pyogenes ATCC 49399): 0.015 µg/mL (≈ 0.027 µM)
- MIC [4, 16]: 0.015 µg/mL (≈ 0.027 µM)
- time-kill kinetics outcome (bactericidal = ≥3 log reduction in CFU per mL) [5]: killing at 6 and 24 hr that approached 3-logs
- MIC [6, 17]: 0.06 µg/mL (≈ 0.108 µM)
- MIC [6, 18]: 0.06 µg/mL (≈ 0.108 µM)
- MIC [6, 19]: 0.03 µg/mL (≈ 0.0541 µM)
- MIC [6, 20]: 0.03 to 0.06 µg/mL (≈ 0.0541 to 0.108 µM)
- Cumulative percentage of isolates inhibited at MIC [7, 21]: 10.0%
- Number of test isolates at MIC [7, 21]: 3
- Cumulative percentage of isolates inhibited at MIC [7, 22]: 40.0%
- Number of test isolates at MIC [7, 22]: 9
- Cumulative percentage of isolates inhibited at MIC [7, 23]: 66.7%
- Number of test isolates at MIC [7, 23]: 8
- Cumulative percentage of isolates inhibited at MIC [7, 24]: 73.3%
- Number of test isolates at MIC [7, 24]: 2
- Cumulative percentage of isolates inhibited at MIC ([7]; listed as CTR): 76.7% and 100.0%
- time-kill kinetics outcome (bactericidal = ≥3 log reduction in CFU per mL) [8]: bactericidal effect at 24 hr at 8×MIC, as did ceftriaxone (6 and 24 hr)
- mutation rate [9]: indeterminate
- Spontaneous Mutation Frequency [9]: ≤ 7.41×10^−9
- isolates resistant [10]: 3%
- isolates with intermediate resistance [10]: 10%
- % I [10, 25]: 10%
- % R [10, 25]: 3%
- % S [10, 25]: 87%
- MIC50 [10, 25]: 16 µg/mL (≈ 28.9 µM)
- MIC90 [10, 25]: 32 µg/mL (≈ 57.7 µM)
- MIC50 ([10]; Veillonella, read-out: MIC50): 16 µg/mL (≈ 28.9 µM)
- MIC90 ([10]; Veillonella, read-out: MIC90): 32 µg/mL (≈ 57.7 µM)
- Mode [10, 25]: 16 µg/mL
- MIC, CLSI QC range [11]: (0.03-0.12)^1 μg/mL
- Average Count [12, 26]: 0 CFU
- Count 1 [12, 26]: 0 CFU
- Count 2 [12, 26]: 0 CFU
- Spontaneous Mutation Frequency [12, 26]: ≤1.73 × 10^−10
- MPC [12, 27]: 0.12 µg/mL
- MPC [13, 27]: 0.12 µg/mL

Compound: C[C@@H](O)[C@H]1C(=O)N2C(C(=O)O)=C(S[C@@H]3CN[C@H](C(=O)N(C)C)C3)[C@H](C)[C@H]12 [meropenem]
- isolates with intermediate resistance [1]: Three
- % I [1, 14]: 3%
- % S [1, 14]: 97%
- MIC50 [1, 14]: 0.5 µg/mL (≈ 1.3 µM)
- MIC90 [1, 14]: 2 µg/mL (≈ 5.22 µM)
- MIC50 ([1]; Bacteroides, read-out: MIC50): 0.5 µg/mL (≈ 1.3 µM)
- MIC90 ([1]; Bacteroides, read-out: MIC90): 2 µg/mL (≈ 5.22 µM)
- Mode [1, 14]: 0.5 µg/mL
- MIC ([2]; S. pneumoniae ATCC 49619): 0.06 µg/mL (≈ 0.156 µM)
- MIC [2, 15]: 0.06 µg/mL (≈ 0.156 µM)
- time-kill kinetics outcome (bactericidal = ≥3 log reduction in CFU per mL) [3]: all three drug concentrations tested demonstrated bactericidal effects at 24 hr
- MIC ([4]; S. pyogenes ATCC 49399): 0.004 µg/mL (≈ 0.0104 µM)
- MIC [4, 16]: 0.004 µg/mL (≈ 0.0104 µM)
- time-kill kinetics outcome (bactericidal = ≥3 log reduction in CFU per mL) [5]: regrowth was observed at 24 hr for all concentrations
- CFU decrease ([5]; 8×MIC, 6 hr timepoint): 3 log10 CFU
- MIC [6, 17]: 0.03 µg/mL (≈ 0.0782 µM)
- MIC [6, 18]: 0.06 µg/mL (≈ 0.156 µM)
- MIC [6, 19]: 0.008 µg/mL (≈ 0.0209 µM)
- MIC [6, 20]: 0.008 to 0.12 µg/mL (≈ 0.0209 to 0.313 µM)
- Cumulative percentage of isolates inhibited at MIC [7, 28]: 80.0%
- Number of test isolates at MIC [7, 28]: 4
- Cumulative percentage of isolates inhibited at MIC [7, 21]: 83.3%
- Number of test isolates at MIC [7, 21]: 1
- Cumulative percentage of isolates inhibited at MIC [7, 29]: 100.0%
- Number of test isolates at MIC [7, 29]: 5
- time-kill kinetics outcome (bactericidal = ≥3 log reduction in CFU per mL) [8]: bactericidal effect at 24 hr at 8×MIC
- colonies on selection plates [9]: too numerous to count
- mutation rate [9]: indeterminate
- colonies on selection plates ([9]; listed as Meropenem): only E. coli MMX 1312 demonstrated growth
- Spontaneous Mutation Frequency [9]: ≤ 7.41×10^−9
- isolates with intermediate resistance [10]: Twenty-three
- relative activity among drugs tested [10]: most active drug evaluated; also recorded: most active agent
- % I [10, 25]: 23%
- % S [10, 25]: 77%
- MIC50 [10, 25]: 1 µg/mL (≈ 2.61 µM)
- MIC90 [10, 25]: 8 µg/mL (≈ 20.9 µM)
- MIC range [10, 25]: 0.12 to 8 µg/mL
- MIC50 ([10]; Veillonella, read-out: MIC50): 1 µg/mL (≈ 2.61 µM)
- MIC90 ([10]; Veillonella, read-out: MIC90): 8 µg/mL (≈ 20.9 µM)
- Mode [10, 25]: 0.12 µg/mL
- MIC, CLSI QC range [11]: (0.03-0.25) μg/mL
- MPC [12]: 0.12 µg/mL
- MPC [13]: 0.03 µg/mL
- Average Count ([13]; selection 4X MIC, 0.03 μg/mL): 0 CFU
- Count 1 ([13]; selection 4X MIC, 0.03 μg/mL): 0 CFU
- Count 2 ([13]; selection 4X MIC, 0.03 μg/mL): 0 CFU
- Spontaneous Mutation Frequency ([13]; selection 4X MIC, 0.03 μg/mL): ≤1.81 × 10^−10
- Average Count ([13]; selection 8X MIC, 0.06 μg/mL): 0 CFU
- Count 1 ([13]; selection 8X MIC, 0.06 μg/mL): 0 CFU
- Count 2 ([13]; selection 8X MIC, 0.06 μg/mL): 0 CFU
- Spontaneous Mutation Frequency ([13]; selection 8X MIC, 0.06 μg/mL): ≤1.81 × 10^−10
